Measured values: the Kinase Knowledgebase extract (Sharma et al. 2016)
Where “and” joins values, the source holds several entries; their conditions need not be identical. Equal values may be shown once.

Key:
PIK3CD (Human) [1] = biological target: PIK3CD (Human) (UniProt O00329); test: Inhibition of PIK3CD Kinase Activity in Pfeiffer Cells
PIK3CD (Human) [2] = biological target: PIK3CD (Human) (UniProt O00329); test: Inhibition of PIK3CD Kinase Activity (AlphaScreen Assay)
PIK3CD (Human) [3] = biological target: PIK3CD (Human) (UniProt O00329); test: Inhibition of PIK3CD Kinase Activity (Scintillation Proximity Assay)
PIK3CD (Human) [4] = biological target: PIK3CD (Human) (UniProt O00329); test: Inhibition of PIK3CD Kinase Activity

Chain of PIK3CD (Human) (O00329 whole entry, looked up): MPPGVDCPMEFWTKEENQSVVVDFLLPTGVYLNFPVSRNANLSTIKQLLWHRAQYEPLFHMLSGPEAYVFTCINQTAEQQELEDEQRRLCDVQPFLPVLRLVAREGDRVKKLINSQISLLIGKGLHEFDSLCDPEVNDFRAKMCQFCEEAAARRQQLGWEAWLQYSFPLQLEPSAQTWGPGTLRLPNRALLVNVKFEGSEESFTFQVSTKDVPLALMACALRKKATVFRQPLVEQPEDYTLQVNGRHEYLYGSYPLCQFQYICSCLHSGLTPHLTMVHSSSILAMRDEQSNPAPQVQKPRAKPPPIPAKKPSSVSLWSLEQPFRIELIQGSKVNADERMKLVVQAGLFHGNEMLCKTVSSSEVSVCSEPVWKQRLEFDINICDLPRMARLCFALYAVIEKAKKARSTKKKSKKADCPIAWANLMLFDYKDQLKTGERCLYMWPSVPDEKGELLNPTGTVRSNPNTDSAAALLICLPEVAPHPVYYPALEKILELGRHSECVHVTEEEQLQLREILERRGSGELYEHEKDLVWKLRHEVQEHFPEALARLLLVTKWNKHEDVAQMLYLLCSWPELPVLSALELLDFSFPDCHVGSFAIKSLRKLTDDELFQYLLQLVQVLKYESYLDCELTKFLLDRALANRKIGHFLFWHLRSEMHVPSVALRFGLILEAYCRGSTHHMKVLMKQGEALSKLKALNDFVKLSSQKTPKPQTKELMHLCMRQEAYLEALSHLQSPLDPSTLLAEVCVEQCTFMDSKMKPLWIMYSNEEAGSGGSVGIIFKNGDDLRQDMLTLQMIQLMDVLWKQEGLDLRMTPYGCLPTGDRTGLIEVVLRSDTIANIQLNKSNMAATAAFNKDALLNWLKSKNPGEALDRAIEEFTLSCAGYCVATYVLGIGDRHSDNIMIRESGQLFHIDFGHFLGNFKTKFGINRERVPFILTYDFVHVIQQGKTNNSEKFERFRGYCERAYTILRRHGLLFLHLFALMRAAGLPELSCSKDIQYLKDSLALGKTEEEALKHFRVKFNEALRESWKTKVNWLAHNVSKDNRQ

| Compound | IC50 (PIK3CD (Human) [1]) | IC50 (PIK3CD (Human) [3]) | other results |
| --- | --- | --- | --- |
| Cc1cccc2nc(C(C)Nc3ncnc4[nH]cnc34)c(-c3ccc(F)c(F)c3)c(=O)n12 (configuration not stated) | 500 to 1000 nM |  |  |
| Cc1csc2nc(C(C)Nc3nc(N)nc4[nH]cnc34)c(-c3cccc(F)c3)c(=O)n12 (configuration not stated) |  |  | IC50 (PIK3CD (Human) [2]): < 50 nM |
| Cc1csc2nc(C(C)Nc3ncnc4[nH]cnc34)c(-c3cccc(F)c3F)c(=O)n12 (configuration not stated) |  | 50 to 100 nM |  |
| Cc1csc2nc(C(C)Nc3ncnc4[nH]cnc34)c(-c3cc(F)ccc3F)c(=O)n12 (configuration not stated) | 50 to 100 nM |  |  |
| Cc1ccc(-c2c(C(C)Nc3ncnc4[nH]cnc34)nc3cccc(C)n3c2=O)cc1 (configuration not stated) | 50 to 100 nM |  |  |
| Cc1csc2nc(C(C)Nc3ncnc4[nH]ccc34)c(-c3cc(F)cc(F)c3)c(=O)n12 (configuration not stated) |  | 100 to 500 nM |  |
| Cc1cccc2nc(C(C)Nc3nc(N)nc4[nH]cnc34)c(-c3ccccc3)c(=O)n12 (configuration not stated) |  | < 50 nM |  |
| Cc1cccc2nc(C(C)Nc3ncnc4[nH]cnc34)c(-c3cc(F)cc(F)c3)c(=O)n12 (configuration not stated) | 50 to 100 nM |  |  |
| Cc1csc2nc(C(C)Nc3nc(N)nc4[nH]cnc34)c(-c3cncc(F)c3)c(=O)n12 (configuration not stated) |  | 50 to 100 nM |  |
| Cc1cccc2nc(C(C)Nc3ncnc4[nH]cnc34)c(-c3cccc(Cl)c3)c(=O)n12 (configuration not stated) | 50 to 100 nM |  |  |
| CCC(Nc1ncnc2[nH]cnc12)c1nc2cccc(C)n2c(=O)c1-c1ccccc1 (configuration not stated) |  | < 50 nM |  |
| Cc1csc2nc(C(C)Nc3ncnc4[nH]cnc34)c(-c3nccs3)c(=O)n12 (configuration not stated) | 50 to 100 nM |  |  |
| Cc1cccc2nc(C(C)Nc3ncnc4[nH]cnc34)c(-c3cc(F)ccc3F)c(=O)n12 (configuration not stated) | 50 to 100 nM |  |  |
| Cc1csc2nc(C(C)Nc3ncnc4[nH]cnc34)c(-c3ccccn3)c(=O)n12 (configuration not stated) |  |  | IC50 (PIK3CD (Human) [2]): 50 to 100 nM |
| Cc1csc2nc(C(C)Nc3ncnc4[nH]cnc34)c(-c3cc(F)cc(F)c3)c(=O)n12 (configuration not stated) | 100 to 500 nM | < 50 nM | IC50 (PIK3CD (Human) [2]): < 50 nM; IC50 (PIK3CD (Human) [4]): < 50 nM |
| Cc1csc2nc(C(C)Nc3ncnc4[nH]cnc34)c(-c3ccc(F)cc3)c(=O)n12 (configuration not stated) | 100 to 500 nM |  |  |
| Cc1csc2nc(C(C)Nc3nc(N)nc4[nH]cnc34)c(-c3cccc(Cl)c3)c(=O)n12 (configuration not stated) | < 50 nM |  |  |
| Cc1cccc2nc(C(C)Nc3ncnc4[nH]cnc34)c(-c3ccccc3)c(=O)n12 (configuration not stated) | 50 to 100 nM |  |  |
| Cc1csc2nc(C(C)Nc3ncnc4[nH]cnc34)c(-c3ccccc3)c(=O)n12 (configuration not stated) |  | < 50 nM |  |
| Cc1csc2nc(C(C)Nc3nc(N)nc4[nH]cnc34)c(-c3cccc(F)c3F)c(=O)n12 (configuration not stated) |  | < 50 nM |  |

| Compound | IC50 (PIK3CD (Human) [1]) | IC50 (PIK3CD (Human) [3]) | other results |
| --- | --- | --- | --- |
| Cc1ccccc1-c1c(C(C)Nc2ncnc3[nH]cnc23)nc2cccc(C)n2c1=O (configuration not stated) |  | 100 to 500 nM |  |
| Cc1csc2nc(C(C)Nc3nc(N)nc4[nH]cnc34)c(-c3ccccc3Cl)c(=O)n12 (configuration not stated) | < 50 nM and 100 to 500 nM | 100 to 500 nM and < 50 nM |  |
| Cc1csc2nc(C(C)Nc3nc(N)nc4[nH]cnc34)c(-c3ccccc3)c(=O)n12 (configuration not stated) |  |  | IC50 (PIK3CD (Human) [2]): < 50 nM |
| Cc1csc2nc(C(C)Nc3nc(N)nc4[nH]cnc34)c(-c3cc(F)cc(F)c3)c(=O)n12 (configuration not stated) | < 50 nM | < 50 nM | IC50 (PIK3CD (Human) [2]): < 50 nM |
| CCC(Nc1ncnc2[nH]cnc12)c1nc2cccc(C)n2c(=O)c1-c1cccc(F)c1 (configuration not stated) | 100 to 500 nM |  |  |
| Cc1cccc2nc(C(C)Nc3nc(N)nc4[nH]cnc34)c(-c3cccc(Cl)c3)c(=O)n12 (configuration not stated) | 50 to 100 nM |  |  |
| Cc1csc2nc(C(C)Nc3ncnc4[nH]cnc34)c(-c3ccccc3Cl)c(=O)n12 (configuration not stated) | 100 to 500 nM and < 50 nM | 100 to 500 nM and < 50 nM |  |
| COc1cccc(-c2c(C(C)Nc3ncnc4[nH]cnc34)nc3cccc(C)n3c2=O)c1 (configuration not stated) | 50 to 100 nM |  |  |
| Cc1cccc2nc(C(C)Nc3ncnc4[nH]cnc34)c(-c3cccc(F)c3)c(=O)n12 (configuration not stated) |  | < 50 nM |  |
| Cc1cccc(-c2c(C(C)Nc3ncnc4[nH]cnc34)nc3cccc(C)n3c2=O)c1 (configuration not stated) |  | 100 to 500 nM |  |
| Cc1csc2nc(C(C)Nc3nc(F)nc4[nH]cnc34)c(-c3cc(F)cc(F)c3)c(=O)n12 (configuration not stated) | 50 to 100 nM |  |  |
| Cc1csc2nc(C(C)Nc3ncnc4[nH]cnc34)c(-c3cscn3)c(=O)n12 (configuration not stated) | 50 to 100 nM |  |  |
| Cc1ccc(-c2c(C(C)Nc3ncnc4[nH]cnc34)nc3scc(C)n3c2=O)cc1 (configuration not stated) |  | 100 to 500 nM |  |
| Cc1cccc2nc(C(C)n3cnc4c(N)ncnc43)c(-c3ccccc3)c(=O)n12 (configuration not stated) |  |  | IC50 (PIK3CD (Human) [2]): 100 to 500 nM |
| Cc1cccc2nc(C(C)Nc3nc(N)nc4[nH]cnc34)c(-c3cccc(C#N)c3)c(=O)n12 (configuration not stated) | 100 to 500 nM |  |  |
| Cc1cccc2nc(C(C)Nc3ncnc4[nH]cnc34)c(-c3cccc(C#N)c3)c(=O)n12 (configuration not stated) |  | 100 to 500 nM |  |
| Cc1cccc2nc(C(C)Nc3nc(N)nc4[nH]cnc34)c(-c3ccccc3Cl)c(=O)n12 (configuration not stated) |  | < 50 nM |  |
| Cc1csc2nc(C(C)Nc3ncnc4[nH]cnc34)c(-c3cc(F)cc(Cl)c3)c(=O)n12 (configuration not stated) | 50 to 100 nM |  |  |
| Cc1csc2nc(C(C)Nc3ncnc4[nH]cnc34)c(-c3cccc(Cl)c3)c(=O)n12 (configuration not stated) | 50 to 100 nM |  |  |
| CC(Nc1ncnc2[nH]cnc12)c1nc2scc(C(F)(F)F)n2c(=O)c1-c1cccc(F)c1 (configuration not stated) |  | 50 to 100 nM |  |

| Compound | IC50 (PIK3CD (Human) [1]) | IC50 (PIK3CD (Human) [3]) | other results |
| --- | --- | --- | --- |
| Cc1csc2nc(C(C)Nc3nc(N)nc4[nH]cnc34)c(-c3cc(F)cc(Cl)c3)c(=O)n12 (configuration not stated) | < 50 nM |  |  |
| Cc1cccc2nc(C(C)Nc3ncnc4[nH]cnc34)c(-c3ccccc3Cl)c(=O)n12 (configuration not stated) | 50 to 100 nM |  |  |
| Cc1csc2nc(C(C)Nc3ncnc4[nH]cnc34)c(-c3cncc(F)c3)c(=O)n12 (configuration not stated) |  | 100 to 500 nM |  |
| CC(Nc1nc(N)nc2[nH]cnc12)c1nc2sccn2c(=O)c1-c1ccccc1 (configuration not stated) |  | 100 to 500 nM |  |
| Cc1cccc2nc(C(C)Nc3nc(N)nc4[nH]cnc34)c(-c3ccc(C#N)cc3)c(=O)n12 (configuration not stated) | 500 to 1000 nM |  |  |
| CC(Nc1nc(N)nc2[nH]cnc12)c1nc2ccccn2c(=O)c1-c1cc(F)cc(F)c1 (configuration not stated) |  | 100 to 500 nM |  |
| CCc1cccc2nc(C(C)Nc3nc(N)nc4[nH]cnc34)c(-c3cc(F)cc(F)c3)c(=O)n12 (configuration not stated) | < 50 nM |  |  |
| CCC(Nc1ncnc2[nH]cnc12)c1nc2cccc(C)n2c(=O)c1-c1cc(F)cc(F)c1 (configuration not stated) |  | 50 to 100 nM |  |
| Cc1cccc2nc(C(C)Nc3ncnc4[nH]cnc34)c(-c3cccc(F)c3F)c(=O)n12 (configuration not stated) | 100 to 500 nM |  |  |
| Cc1cccc2nc(C(C)Nc3nc(N)nc4[nH]cnc34)c(-c3cccc(F)c3)c(=O)n12 (configuration not stated) |  | < 50 nM |  |
| Cc1csc2nc(C(C)Nc3nc(N)nc4[nH]cnc34)c(-c3ccccc3F)c(=O)n12 (configuration not stated) |  | < 50 nM |  |
| Cc1csc2nc(C(C)Nc3ncnc4[nH]cnc34)c(-c3ccccc3F)c(=O)n12 (configuration not stated) | 50 to 100 nM |  |  |
| Cc1cccc2nc(C(C)Nc3ncnc4[nH]cnc34)c(-c3ccccc3F)c(=O)n12 (configuration not stated) | 100 to 500 nM |  |  |
| CCc1cccc2nc(C(C)Nc3ncnc4[nH]cnc34)c(-c3ccc(F)cc3)c(=O)n12 (configuration not stated) | 100 to 500 nM |  |  |
| CCC(Nc1ncnc2[nH]cnc12)c1nc2cccc(C)n2c(=O)c1-c1cncc(F)c1 (configuration not stated) |  |  | IC50 (PIK3CD (Human) [2]): 100 to 500 nM |
| CCC(Nc1ncnc2[nH]cnc12)c1nc2cccc(C)n2c(=O)c1-c1cn[nH]c1 (configuration not stated) | 500 to 1000 nM |  |  |
| CCC(Nc1ncnc2[nH]cnc12)c1nc2cccc(C)n2c(=O)c1-c1cccnc1F (configuration not stated) |  |  | IC50 (PIK3CD (Human) [2]): 100 to 500 nM |
| CCc1cccc2nc(C(C)Nc3ncnc4[nH]cnc34)c(-c3cc(F)cc(F)c3)c(=O)n12 (configuration not stated) |  | 100 to 500 nM |  |
| Cc1cccc(-c2c(C(C)Nc3nc(N)nc4[nH]cnc34)nc3cccc(C)n3c2=O)c1 (configuration not stated) | 50 to 100 nM |  |  |
| Cc1cccc2nc(C(C)Nc3nc(N)nc4[nH]cnc34)c(-c3ccccc3F)c(=O)n12 (configuration not stated) | 50 to 100 nM |  |  |
